Test results published in article PMC5416783, “Inhibition of homologous phosphorolytic ribonucleases by citrate may represent an evolutionarily conserved communicative link between RNA degradation and central metabolism” (Nucleic Acids Research, 2017).

What was measured:
Assay in all cases: end-point exoribonuclease gel assay, […]'-FAM-A20 RNA
Type in all cases: biochemical
[1] = molecular target: T1, H. sapiens PNPase (hPNPase) (Homo sapiens, UniProt Q8TCS8); conditions: inhibition; 700 nM FAM-A20 RNA, 240 nM enzyme, 3.75 mM MgCl2, phosphate, pH 8, 37 °C, 60 min; control without citrate 8.4 ± 2.8 %
T1 construct: gene PNPT1; N-terminal hexahistidine tag (pET-28b), codon-optimised, expressed in E. coli BL21(DE3)pLysS; homotrimer
T1 sequence (Q8TCS8 46-783): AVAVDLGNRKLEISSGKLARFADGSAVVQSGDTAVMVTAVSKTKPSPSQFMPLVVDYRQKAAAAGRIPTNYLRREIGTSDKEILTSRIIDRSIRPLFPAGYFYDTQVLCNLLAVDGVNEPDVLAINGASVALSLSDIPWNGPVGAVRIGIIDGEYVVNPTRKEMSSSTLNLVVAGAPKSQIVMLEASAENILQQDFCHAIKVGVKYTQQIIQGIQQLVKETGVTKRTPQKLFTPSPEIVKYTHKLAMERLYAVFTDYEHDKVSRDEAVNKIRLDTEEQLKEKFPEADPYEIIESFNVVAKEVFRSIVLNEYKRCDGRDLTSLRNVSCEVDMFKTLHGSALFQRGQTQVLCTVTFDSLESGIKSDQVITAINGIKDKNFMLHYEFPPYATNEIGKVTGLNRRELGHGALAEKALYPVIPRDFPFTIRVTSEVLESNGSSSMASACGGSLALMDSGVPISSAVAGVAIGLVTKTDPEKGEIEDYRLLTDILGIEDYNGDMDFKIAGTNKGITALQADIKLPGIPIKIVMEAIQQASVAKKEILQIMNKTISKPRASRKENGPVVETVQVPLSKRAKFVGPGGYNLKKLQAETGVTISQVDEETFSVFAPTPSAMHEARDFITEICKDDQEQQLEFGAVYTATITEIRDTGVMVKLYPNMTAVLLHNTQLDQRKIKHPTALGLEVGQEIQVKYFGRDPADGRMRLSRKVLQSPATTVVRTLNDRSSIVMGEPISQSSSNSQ

[2] = molecular target: T2, Synechocystis sp. PNPase (SspPNPase) (Synechocystis sp. PCC 6803, UniProt P72659); conditions: inhibition; 700 nM FAM-A20 RNA, 240 nM enzyme, 3.75 mM MgCl2, phosphate, pH 8, 37 °C, 30 min; control without citrate 2.2 ± 0.2 %
T2 construct: gene pnp; recombinant, commercial (Sigma)
T2 sequence (P72659 1-718): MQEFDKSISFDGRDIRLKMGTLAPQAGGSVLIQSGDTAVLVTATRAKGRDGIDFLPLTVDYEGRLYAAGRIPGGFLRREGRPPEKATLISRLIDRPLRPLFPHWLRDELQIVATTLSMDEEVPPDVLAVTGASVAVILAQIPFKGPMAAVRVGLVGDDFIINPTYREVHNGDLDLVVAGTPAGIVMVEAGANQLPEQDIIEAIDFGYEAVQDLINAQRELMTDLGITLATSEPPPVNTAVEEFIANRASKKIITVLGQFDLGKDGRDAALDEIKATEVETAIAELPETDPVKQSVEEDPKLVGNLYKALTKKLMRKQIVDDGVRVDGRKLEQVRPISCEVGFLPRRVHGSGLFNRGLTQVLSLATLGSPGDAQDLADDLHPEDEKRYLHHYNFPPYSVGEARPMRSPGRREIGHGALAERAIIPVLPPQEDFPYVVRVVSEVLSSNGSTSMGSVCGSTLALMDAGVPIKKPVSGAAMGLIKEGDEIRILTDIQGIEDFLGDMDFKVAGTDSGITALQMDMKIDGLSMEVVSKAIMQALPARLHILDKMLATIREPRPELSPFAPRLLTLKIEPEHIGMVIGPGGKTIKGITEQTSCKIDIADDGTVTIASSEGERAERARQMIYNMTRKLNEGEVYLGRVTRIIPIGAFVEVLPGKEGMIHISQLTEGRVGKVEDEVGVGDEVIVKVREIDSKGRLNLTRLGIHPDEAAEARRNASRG

[3] = molecular target: T3, S. solfataricus Exosome (SsoExosome) (Saccharolobus solfataricus, UniProt Q9UXC0+Q9UXC2); conditions: inhibition; 700 nM FAM-A20 RNA, 240 nM enzyme, 3.75 mM MgCl2, phosphate, pH 8, 37 °C, 10 min; control without citrate 4.0 ± 0.5 %
T3 construct: gene rrp41; N-terminal hexahistidine Rrp4 co-expressed with untagged Rrp41 and Rrp42 in E. coli BL21(DE3)pLysS; codon-optimised; trimer of Rrp41/Rrp42 dimers with Rrp4 cap; with Exosome complex component Rrp4
T3 sequence (Q9UXC2 1-248): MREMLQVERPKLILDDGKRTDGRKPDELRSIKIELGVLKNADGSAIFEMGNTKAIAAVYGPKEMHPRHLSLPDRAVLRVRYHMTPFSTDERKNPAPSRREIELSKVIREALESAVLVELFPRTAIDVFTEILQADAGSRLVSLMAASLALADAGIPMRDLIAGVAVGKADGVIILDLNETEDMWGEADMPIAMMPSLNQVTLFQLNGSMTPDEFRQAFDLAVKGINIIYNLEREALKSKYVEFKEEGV
T3 sequence (Q9UXC0 1-275): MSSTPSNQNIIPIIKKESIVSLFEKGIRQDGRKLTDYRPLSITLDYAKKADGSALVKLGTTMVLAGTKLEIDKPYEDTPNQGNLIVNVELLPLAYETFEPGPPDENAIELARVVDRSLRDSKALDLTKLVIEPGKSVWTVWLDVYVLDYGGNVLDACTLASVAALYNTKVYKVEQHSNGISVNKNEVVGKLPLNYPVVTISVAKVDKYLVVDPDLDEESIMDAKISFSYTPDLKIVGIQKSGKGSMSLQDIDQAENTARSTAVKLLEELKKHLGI
T3 sequence (Q9UXC4 1-249 partner): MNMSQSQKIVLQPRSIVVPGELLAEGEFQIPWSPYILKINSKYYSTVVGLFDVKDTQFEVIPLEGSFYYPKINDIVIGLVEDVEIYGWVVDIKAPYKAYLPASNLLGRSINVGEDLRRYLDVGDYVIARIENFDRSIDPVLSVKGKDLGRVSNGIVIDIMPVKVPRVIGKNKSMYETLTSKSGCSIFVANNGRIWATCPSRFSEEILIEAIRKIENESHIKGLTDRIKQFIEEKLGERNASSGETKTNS

[4] = molecular target: T4, E. coli PNPase (EcPNPase) (Escherichia coli, UniProt P05055); conditions: inhibition; 700 nM FAM-A20 RNA, 240 nM enzyme, 3.75 mM MgCl2, phosphate, pH 8, 37 °C, 10 min; control without citrate 2.2 ± 0.4 %
T4 construct: gene pnp; pET-Duet1_EcPNPase expressed in E. coli BL21(DE3)pLysS; homotrimer
T4 sequence (P05055 1-711): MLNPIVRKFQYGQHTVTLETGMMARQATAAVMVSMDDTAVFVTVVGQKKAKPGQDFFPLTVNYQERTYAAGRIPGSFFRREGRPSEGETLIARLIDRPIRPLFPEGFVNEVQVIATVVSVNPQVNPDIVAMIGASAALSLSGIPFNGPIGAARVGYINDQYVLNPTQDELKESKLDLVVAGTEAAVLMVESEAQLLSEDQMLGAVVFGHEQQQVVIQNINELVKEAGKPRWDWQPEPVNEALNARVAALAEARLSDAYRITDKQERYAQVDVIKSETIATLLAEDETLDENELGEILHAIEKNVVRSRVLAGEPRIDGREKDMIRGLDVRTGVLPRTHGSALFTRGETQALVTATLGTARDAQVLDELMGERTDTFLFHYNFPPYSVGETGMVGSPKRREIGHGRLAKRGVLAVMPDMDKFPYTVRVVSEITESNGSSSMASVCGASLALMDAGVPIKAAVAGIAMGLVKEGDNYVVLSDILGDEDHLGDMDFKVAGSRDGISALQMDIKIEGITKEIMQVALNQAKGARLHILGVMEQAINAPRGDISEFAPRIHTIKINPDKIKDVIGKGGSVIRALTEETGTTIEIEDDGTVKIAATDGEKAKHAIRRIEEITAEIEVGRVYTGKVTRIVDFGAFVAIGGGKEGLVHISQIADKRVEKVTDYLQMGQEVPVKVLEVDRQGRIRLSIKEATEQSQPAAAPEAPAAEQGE

Compound: O=C(O)CC(O)(CC(=O)O)C(=O)O [citrate]
- Percentage substrate remaining at assay end-point / + citrate [1]: 22.8 ± 4.8%
- Percentage substrate remaining at assay end-point / + citrate [2]: 6.9 ± 2.2%
- Percentage substrate remaining at assay end-point / + citrate [3]: 13.6 ± 0.5%
- Percentage substrate remaining at assay end-point / + citrate [4]: 5.6 ± 1.5%
